# Laboratory results as given in patent publication US20260083865A1, “PROSTATE SPECIFIC MEMBRANE ANTIGEN (PSMA) LIGANDS AND USE THEREOF” (priority 2022, published 2026).
# Like-named read-outs stand apart in the source and are kept apart here. Numbered stars: 1 amine (or outer) side, 2 acyl side, 3 side chain; on linkers, the order of the positions; unused ones are H or OH. Bridge positions count the residues as written; N and C are the ends. Square brackets hold non-standard residues; d marks the D form. Peptide text beside a SMILES is read from it. * marks the point of attachment. DOTA = O=C(O)CN1CCN(CC(=O)O)CCN(CC(=O)*)CCN(CC(=O)O)CC1; Trp(6-Cl) = N[C@@H](Cc1c[nH]c2cc(Cl)ccc12)C(=O)O; Phe(4-CF3) = N[C@@H](Cc1ccc(C(F)(F)F)cc1)C(=O)O; Pro(trans-4-F) = O=C(O)[C@@H]1C[C@@H](F)CN1; Phe(3-Cl) = N[C@@H](Cc1cccc(Cl)c1)C(=O)O; Arg(Me) = CNC(=N)NCCC[C@H](N)C(=O)O; X1 = O=C(CC1CCN([*:1])CC1)[*:2]; Cit = NC(=O)NCCC[C@H](N)C(=O)O; Lys(Me) = CNCCCC[C@H](N)C(=O)O; Tle = CC(C)(C)[C@H](N)C(=O)O; 4Abz = Nc1ccc(C(=O)O)cc1; Aib = CC(C)(N)C(=O)O
# Experiments:
# [1] = target: T1, PSMA-expressing C4-2 cells (Homo sapiens, UniProt Q04609); experiment: FACS binding assay (competition with 50 nM PSM-0183); conditions: read-out: pIC50 [C4-2] CAT (converted)
# T1 construct: PSMA-expressing C4-2 cells (ATCC, Cat. No. CRL-3314) were cultured in RPMI-1640; host or cells: C4-2 cells
# Outline: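 C4-2 cells were incubated 1 h at 4 °C with 50 nM AF488-labelled peptide PSM-0183 plus increasing test compound concentrations, then washed twice in ice-cold buffer. Median fluorescence in the AF488 channel was read by flow cytometry. IC50/pIC50 was derived by 4PL fitting of MFI versus concentration.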
# [2] = target: T2, Fc-fusion protein of human PSMA (hPSMA-Fc) (Homo sapiens, UniProt Q04609); experiment: Surface plasmon resonance assay (Biacore T200, single cycle kinetic); type: binding; conditions: hPSMA-Fc, 25° C., read-out: pKD CAT (converted)
# T2 construct: purchased Acro Biosystems PSA-H5264
# Outline: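 hPSMA-Fc was captured (~1000 RU) on an Fc-binding-peptide CM5 chip, and compounds were run in single cycle kinetic mode at 25° C in HBST with 0.1% DMSO. Double-blank-corrected sensorgrams were fitted to a 1:1 Langmuir model to give KD, reported as pKD.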
# [3] = pIC50 category of FACS binding, C4-2 cells
# [4] = pKD category for PSMA SPR activity assay
# T1 sequence (Q04609 whole entry): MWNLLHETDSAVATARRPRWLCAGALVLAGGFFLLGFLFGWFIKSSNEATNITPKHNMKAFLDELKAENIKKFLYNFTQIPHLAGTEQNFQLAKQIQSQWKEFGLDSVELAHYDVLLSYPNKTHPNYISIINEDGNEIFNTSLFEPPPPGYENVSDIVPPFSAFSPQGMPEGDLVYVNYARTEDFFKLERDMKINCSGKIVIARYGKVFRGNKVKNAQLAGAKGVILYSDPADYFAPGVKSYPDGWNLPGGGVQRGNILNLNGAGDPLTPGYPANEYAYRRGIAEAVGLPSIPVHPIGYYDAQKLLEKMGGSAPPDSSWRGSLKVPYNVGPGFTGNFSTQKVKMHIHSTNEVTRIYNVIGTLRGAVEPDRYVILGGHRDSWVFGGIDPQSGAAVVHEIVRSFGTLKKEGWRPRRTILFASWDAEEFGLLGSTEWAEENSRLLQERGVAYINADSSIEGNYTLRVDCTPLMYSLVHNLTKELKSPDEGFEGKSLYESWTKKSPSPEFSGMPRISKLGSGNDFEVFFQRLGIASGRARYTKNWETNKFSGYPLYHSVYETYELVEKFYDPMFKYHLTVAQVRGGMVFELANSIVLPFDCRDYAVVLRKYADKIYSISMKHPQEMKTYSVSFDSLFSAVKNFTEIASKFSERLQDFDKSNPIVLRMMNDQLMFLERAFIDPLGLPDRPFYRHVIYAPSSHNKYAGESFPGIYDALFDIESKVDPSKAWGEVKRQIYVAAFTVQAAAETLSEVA
# T2 sequence (Q04609 44-750 limits assumed): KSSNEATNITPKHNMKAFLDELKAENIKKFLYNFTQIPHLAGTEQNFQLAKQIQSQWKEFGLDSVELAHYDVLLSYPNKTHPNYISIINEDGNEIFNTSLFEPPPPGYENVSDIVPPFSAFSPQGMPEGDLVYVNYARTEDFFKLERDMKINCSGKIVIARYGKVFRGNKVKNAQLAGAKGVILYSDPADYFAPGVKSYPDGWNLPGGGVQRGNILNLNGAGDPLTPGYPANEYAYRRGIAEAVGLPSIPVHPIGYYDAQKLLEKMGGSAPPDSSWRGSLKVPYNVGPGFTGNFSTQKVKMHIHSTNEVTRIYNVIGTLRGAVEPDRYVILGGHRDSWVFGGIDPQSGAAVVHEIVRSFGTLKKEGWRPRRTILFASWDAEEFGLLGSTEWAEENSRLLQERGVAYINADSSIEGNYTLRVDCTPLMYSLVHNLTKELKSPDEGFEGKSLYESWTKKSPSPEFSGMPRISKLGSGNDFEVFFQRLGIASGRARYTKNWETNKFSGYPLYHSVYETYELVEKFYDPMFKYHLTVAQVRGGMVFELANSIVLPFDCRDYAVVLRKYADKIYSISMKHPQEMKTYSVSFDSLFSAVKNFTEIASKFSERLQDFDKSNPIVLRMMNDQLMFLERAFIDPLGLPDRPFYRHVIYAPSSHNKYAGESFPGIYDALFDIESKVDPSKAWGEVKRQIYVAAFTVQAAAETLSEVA
SMILES,"IC50 [1, 3] [nM]","Kd [2, 4] [nM]",other results
"CC(=O)N[C@H](C(=O)NC(C)(C)C(=O)N[C@@H](Cc1ccccc1)C(=O)N[C@H]1CSSC[C@@H](C(=O)N[C@H](C(=O)N[C@H](C(=O)N[C@@H](CC(=O)O)C(N)=O)[C@@H](C)O)C(C)(C)C)NC(=O)[C@H](CC(N)=O)NC(=O)[C@@H]2C[C@@H](F)CN2C(=O)[C@H](CCCNC(=N)N)NC(=O)[C@H](CCCCN)NC1=O)[C@@H](C)O [PSM-0392, Ac-Thr-Aib-Phe-[Cys-Lys-Arg-4Tfp-Asn-Cys]-Tle-Thr-Asp-NH2] (Ac-T[Aib]FCKR[Pro(trans-4-F)]NC[Tle]TD-NH2; disulfide 4-9)",< 200,< 12.6,–
"CNCCCC[C@@H]1NC(=O)[C@@H](NC(=O)[C@H](Cc2c[nH]c3cc(Cl)ccc23)NC(=O)C(C)(C)NC(=O)[C@@H](NC(=O)CC2CCN(C(=O)CN3CCN(CC(=O)O)CCN(CC(=O)O)CCN(CC(=O)O)CC3)CC2)[C@@H](C)O)CSSC[C@@H](C(=O)N[C@H](C(N)=O)C(C)(C)C)NC(=O)[C@H](CC(N)=O)NC(=O)C(C)(C)NC(=O)[C@H](CCCNC(=N)NC)NC1=O [PSM-0390, DOTA-Cmp-Tle-Aib-6Clw-[Cys-Lys(Me)-Arg(Me)-Aib-Asn-Cys]-Tle-NH2] ({DOTA}-[X1]T[Aib][Trp(6-Cl)]C[Lys(Me)][Arg(Me)][Aib]NC[Tle]-NH2; disulfide 5-10)",< 200,< 12.6,–
"C[C@@H](O)[C@H](NC(=O)[C@@H](NC(=O)[C@@H]1CSSC[C@H](NC(=O)[C@H](Cc2ccccc2)NC(=O)C(C)(C)NC(=O)[C@@H](NC(=O)c2ccc(NC(=O)CN3CCN(CC(=O)O)CCN(CC(=O)O)CCN(CC(=O)O)CC3)cc2)[C@@H](C)O)C(=O)N[C@@H](CCCCN)C(=O)N[C@@H](CCCNC(=N)N)C(=O)NC(C)(C)C(=O)N[C@@H](CC(N)=O)C(=O)N1)C(C)(C)C)C(N)=O [PSM-0448, DOTA-Pab-Thr-Aib-Phe-[Cys-Lys-Arg-Aib-Asn-Cys]-Tle-Thr-NH2] ({DOTA-4Abz}-T[Aib]FCKR[Aib]NC[Tle]T-NH2; disulfide 4-9)",< 200,< 12.6,–
"CC(=O)NC(C)(C)C(=O)N[C@@H](Cc1ccccc1)C(=O)N[C@H]1CSSC[C@@H](C(=O)N[C@H](C(=O)N[C@H](C(N)=O)[C@@H](C)O)C(C)(C)C)NC(=O)[C@H](CC(N)=O)NC(=O)C(C)(C)NC(=O)[C@H](CCCNC(=N)N)NC(=O)[C@H](CCCCN)NC1=O [PSM-0228, Ac-Aib-Phe-[Cys-Lys-Arg-Aib-Asn-Cys]-Tle-Thr-NH2] (Ac-[Aib]FCKR[Aib]NC[Tle]T-NH2; disulfide 3-8)",–,–,"IC50 ([1]; FACS binding, C4-2 cells, competition with 50 nM PSM-0183, category): < 200 nM; Kd ([2]; SPR, single cycle kinetic, category): < 12.6 nM"
"CC(=O)N[C@H](C(=O)NC(C)(C)C(=O)N[C@@H](Cc1ccccc1)C(=O)N[C@H]1CSSC[C@@H](C(=O)N[C@H](C(=O)N[C@H](C(=O)N[C@@H](CC(=O)O)C(N)=O)[C@@H](C)O)C(C)(C)C)NC(=O)[C@H](CC(N)=O)NC(=O)C(C)(C)NC(=O)[C@H](CCCNC(N)=O)NC(=O)[C@H](CCCCN)NC1=O)[C@@H](C)O [PSM-0280, Ac-Thr-Aib-Phe-[Cys-Lys-Cit-Aib-Asn-Cys]-Tle-Thr-Asp-NH2] (Ac-T[Aib]FCK[Cit][Aib]NC[Tle]TD-NH2; disulfide 4-9)",–,–,"IC50 ([1]; FACS binding, PSMA-expressing C4-2 cells, pIC50 category): < 200 nM; Kd ([2]; PSMA SPR assay, pKD category): < 12.6 nM"
"CC(=O)N[C@H](C(=O)NC(C)(C)C(=O)N[C@@H](Cc1cccc(Cl)c1)C(=O)N[C@H]1CSSC[C@@H](C(=O)N[C@H](C(=O)N[C@H](C(=O)N[C@@H](CC(=O)O)C(N)=O)[C@@H](C)O)C(C)(C)C)NC(=O)[C@H](CC(N)=O)NC(=O)C(C)(C)NC(=O)[C@H](CCCNC(=N)N)NC(=O)[C@H](CCCCN)NC1=O)[C@@H](C)O [PSM-0383, Ac-Thr-Aib-Mcf-[Cys-Lys-Arg-Aib-Asn-Cys]-Tle-Thr-Asp-NH2] (Ac-T[Aib][Phe(3-Cl)]CKR[Aib]NC[Tle]TD-NH2; disulfide 4-9)",< 200,< 12.6,–
"CNCCCC[C@@H]1NC(=O)[C@@H](NC(=O)[C@H](Cc2ccc(C(F)(F)F)cc2)NC(=O)C(C)(C)NC(=O)[C@@H](NC(=O)CC2CCN(C(=O)CN3CCN(CC(=O)O)CCN(CC(=O)O)CCN(CC(=O)O)CC3)CC2)[C@@H](C)O)CSSC[C@@H](C(=O)N[C@H](C(N)=O)C(C)(C)C)NC(=O)[C@H](CC(N)=O)NC(=O)C(C)(C)NC(=O)[C@H](CCCNC(=N)NC)NC1=O [PSM-0549, DOTA-Cmp-Thr-Aib-Ptf-[Cys-Lys(Me)-Arg(Me)-Aib-Ass-Cys]-Tle-NH2] ({DOTA}-[X1]T[Aib][Phe(4-CF3)]C[Lys(Me)][Arg(Me)][Aib]NC[Tle]-NH2; disulfide 5-10)",< 200,12.6 to 126,–
